How the values were obtained:
Format in all cases: in vivo, human
[1] = test system: Chinese subjects with age-related neovascular or wet age-related macular degeneration; test: Randomized double-blind clinical study, BCVA of the study eye by ETDRS
Procedure: (§1) A total of 304 Chinese subjects with age-related neovascular or wet age-related macular degeneration were enrolled in a randomized, double-blind clinical study to assess the efficacy of intravitreal (IVT) administrated aflibercept compared with V®-PDT on the mean change in BCVA (Best corrected visual acuity) from baseline to Week 28. BCVA of the study eye was assessed according to the standard procedures developed for the ETDRS (Early Treatment Diabetic Retinopathy Study) adapted for Age Related Eye Disease Study (AREDS). The key inclusion criteria were as follows: • Signed and dated written ICF. • Men and women ≧50 years of age. • Active predominantly classic, subfoveal choroidal neovascularization (CNV) lesions secondary to AMD, including juxtafoveal lesions that affect the fovea, as evidenced by fluorescein angiography (FA), in the study eye. • The area of the CNV had to occupy at least 50% of the total lesion. • ETDRS best corrected visual acuity (BCVA) of 73 to 25 letters in the study eye (Snellen activity equivalent of 20/40 to 20/320 in the study eye).
(§2) The following key exclusion criteria applied for the study eye: • Total lesion size is greater than 12 disc areas (30.5 mm^2, including blood, scars and neovascularization), as assessed by FA • Sub-retinal hemorrhages that is >50% of the total lesion area, or if the blood is under the fovea and is 1 or more disc areas in size. (If the blood is under the fovea, then the fovea must be surrounded by 270 degrees by visible CNV.) • Presence of CNV with an origin other than wAMD. History or clinical evidence of diabetic retinopathy, diabetic macular edema or any retinal vascular disease other than wAMD. Particular attention should be made to exclude subjects with polypoidal choroidal vasculopathy (PCV). • Presence of scar, fibrosis, or atrophy involving the center of the fovea that indicates substantial irreversible vision loss. • Presence of retinal pigment epithelial tears or rips involving the macula.
Eligible patients were randomized 3:1 to receive aflibercept (VTE) 2Q8 or V®-PDT (228 VTE+76 PDT). 194 patients with active CNV lesions >=50% (147 VTE2Q8+47 PDT) and 106 patients with active CNV lesions <50% (78 VTE2Q8+28 PDT) were included. The lesion size was determined by a central reading center based on the MPS protocol [Macular Photocoagulation Study Group, Arch Ophthalmol 1991, 109:1242-1257]. The active CNV size, the area of CNV (mm^2) as well as the total lesion size was measured using the FA. The central retinal thickness was determined by optical coherence tomography. In the VTE2Q8 group patients were treated with 2 mg (0.05 mL) aflibercept administered intravitreally at baseline, week 4, 8, 16, 24, 32, 40 and 48. In the PDT group V®-PDT was performed at baseline and potential PDT retreatment according to the guidelines for the use of PDT treatment in wAMD [Verteporfin Roundtable Participants, Retina. 2005; 25(2):119-34] were performed at week 12 and 24. At Week 28, after assessment of the primary and secondary endpoints, subjects in the PDT→VEGF Trap-Eye group received an IVT injection of 2.0 mg VEGF Trap-Eye, followed by additional 2.0 mg VEGF Trap-Eye injections at Weeks 32, 36, 40, and 48.

[2] = test system: Chinese subjects with age-related neovascular or wet age-related macular degeneration; test: Same clinical study, central retinal thickness by optical coherence tomography
Procedure: as §1, §2
(§3) Eligible patients were randomized 3:1 to receive aflibercept (VTE) 2Q8 or V®-PDT (228 VTE+76 PDT). 194 patients with active CNV lesions >=50% (147 VTE2Q8+47 PDT) and 106 patients with active CNV lesions <50% (78 VTE2Q8+28 PDT) were included. The lesion size was determined by a central reading center based on the MPS protocol [Macular Photocoagulation Study Group, Arch Ophthalmol 1991, 109:1242-1257]. The active CNV size, the area of CNV (mm^2) as well as the total lesion size was measured using the FA. The central retinal thickness was determined by optical coherence tomography. In the VTE2Q8 group patients were treated with 2 mg (0.05 mL) aflibercept administered intravitreally at baseline, week 4, 8, 16, 24, 32, 40 and 48. […]

[3] = test system: Chinese subjects with age-related neovascular or wet age-related macular degeneration; test: Same clinical study, CNV lesion size by fluorescein angiography (MPS protocol)
Procedure: as §1, §2, §3

[4] = active CNV lesion <50%, week 28
[5] = active CNV lesion <50%, week 52, PDT group on VEGF Trap-Eye from week 28
[6] = active CNV lesion >=50%, week 28
[7] = active CNV lesion >=50%, week 52, PDT group on VEGF Trap-Eye from week 28

## Aflibercept [VTE2Q8]
[1]; active CNV lesion <50% of total lesion size, week 28, from baseline
  Mean change of BCVA: 16.7 letters
[1]; active CNV lesion <50% of total lesion size, week 28, from baseline, listed as aflibercept
  Mean change of BCVA: 16.7 (−21 to 59) letters
[1]; active CNV lesion <50% of total lesion size, week 52, from baseline, PDT group received IVT 2.0 mg VEGF Trap-Eye from week 28
  Mean change of BCVA: 18.1 letters
[1]; [4]
  Proportion of patients who gained 5 or more letters: 85.9%
  Proportion of patients who gained 10 or more letters: 73.1%
  Proportion of patients who gained 15 or more letters: 57.7%
  Proportion of patients who lost 5 or more letters: 5.1%
  Proportion of patients who lost 10 or more letters: 3.8%
  Proportion of patients who lost 15 or more letters: 2.6%
  Proportion of patients who maintained vision (letter loss <15 letters): 97.4%
[1]; [5]
  Proportion of patients who gained 5 or more letters: 88.5%
  Proportion of patients who gained 10 or more letters: 78.2%
  Proportion of patients who gained 15 or more letters: 69.2%
  Proportion of patients who lost 5 or more letters: 6.4%
  Proportion of patients who lost 10 or more letters: 3.8%
  Proportion of patients who lost 15 or more letters: 3.8%
  Proportion of patients who maintained vision (letter loss <15 letters): 96.2%
[1]; active CNV lesion >=50% of total lesion size, week 28, from baseline
  Mean change of BCVA: 12.7 letters
[1]; active CNV lesion >=50% of total lesion size, week 28, from baseline, listed as aflibercept
  Mean change of BCVA: 12.7 (−29 to 40) letters
[1]; active CNV lesion >=50% of total lesion size, week 52, from baseline, PDT group received IVT 2.0 mg VEGF Trap-Eye from week 28
  Mean change of BCVA: 14.0 letters
[1]; [6]
  Proportion of patients who gained 5 or more letters: 77.6%
  Proportion of patients who gained 10 or more letters: 66.7%
  Proportion of patients who gained 15 or more letters: 45.6%
  Proportion of patients who lost 5 or more letters: 6.8%
  Proportion of patients who lost 10 or more letters: 2.7%
  Proportion of patients who lost 15 or more letters: 0.7%
  Proportion of patients who maintained vision (letter loss <15 letters): 99.3%
[1]; [7]
  Proportion of patients who gained 5 or more letters: 78.9%
  Proportion of patients who gained 10 or more letters: 67.3%
  Proportion of patients who gained 15 or more letters: 53.1%
  Proportion of patients who lost 5 or more letters: 8.2%
  Proportion of patients who lost 10 or more letters: 4.1%
  Proportion of patients who lost 15 or more letters: 2.0%
  Proportion of patients who maintained vision (letter loss <15 letters): 98.0%
[1]; whole study population irrespective of the active CNV lesion size, week 28, range in brackets
  mean change from baseline BCVA letter score: 14.0 (−29 to 59)
[2]; [4]
  Mean change in central retinal thickness: −180.6 um
[2]; [5]
  Mean change in central retinal thickness: −185.5 um
[2]; [6]
  Mean change in central retinal thickness: −180.4 um
[2]; [7]
  Mean change in central retinal thickness: −192.1 um
[3]; [4]
  Mean change in CNV lesion size: −0.688 mm^2
[3]; [5]
  Mean change in CNV lesion size: −0.688 mm^2
[3]; [6]
  Mean change in CNV lesion size: −1.009 mm^2
[3]; [7]
  Mean change in CNV lesion size: −1.173 mm^2

Source: patent US20170326106A1, “TREATMENT OF AGE RELATED MACULAR DEGENERATION WITH A SMALL ACTIVE CHOROIDAL NEOVASCULARIZATION LESION” (BAYER HEALTHCARE LLC, priority 2014, published 2017)
